Key:
[1] = molecular target: T1, CypD (Homo sapiens, UniProt P30405); assay: CypD binding assay (competition fluorescence polarisation with fluorescein-labelled cyclosporin)
Experimental: The binding capacity of the compounds were measured using a competition Fluorescence-Polarisation based assay with fluorescine labelled cyclosporin. The protocol used was adapted from Hausch et al, Med Chem lett 2010, p 536.

[2] = molecular target: T1, CypD; assay: SPR binding; conditions: SPR surface; read-out: SPR CypD (KDSS)
Description: Binding was confirmed on an SPR surface using a protocol adapted from Mori et al., J. Biomolecular Screening, 2009 p 419.

[3] = molecular target: T1, CypD; assay: CypD enzymatic assay (PPase-chymotrypsin coupled, suc-AAPF-p-NA substrate); format: biochemical; conditions: colorimetric
Experimental: The peptidyl-proline isomerase activity (PPase) was determined by using a PPase-chymotrypsin coupled assay with suc-AAPF-p-NA as substrated and colorimeric detection adapted from Liu et al., AnalBioChem, 2006 p 100.

T1 sequence (P30405 30-207): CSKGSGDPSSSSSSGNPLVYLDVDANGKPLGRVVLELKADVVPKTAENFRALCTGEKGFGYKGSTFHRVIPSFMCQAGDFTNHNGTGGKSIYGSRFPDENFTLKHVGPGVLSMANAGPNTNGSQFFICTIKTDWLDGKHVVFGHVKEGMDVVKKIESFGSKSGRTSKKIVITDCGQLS

Row | Compound | IC50 [1] | Kd [2] | IC50 [3]
1 | O=C(NCC(=O)N1CCCC1c1ccccc1C(F)(F)F)NCc1ccc2c(c1)[C@@H]1C[C@H](N2)[C@H](O)CO1 (stereo partly drawn) [Compound 17, 1-(((2S,3S,6S)-3-hydroxy-2,3,4,6-tetrahydro-1H-2,6-methanobenzo[c][1,5]oxazocin-8-yl)methyl)-3-(2-oxo-2-(2-(2-(trifluoromethyl)phenyl)pyrrolidin-1-yl)ethyl)urea] | 1 to 100 µM | 1 to 100 µM | 
2 | C[C@H](NC(=O)CCc1ccc2c(c1)[C@H]1C[C@@H](N2)[C@H](O)CO1)C(=O)N1CCCC1 [Compound 6, 3-((2R,3S,6R)-3-hydroxy-2,3,4,6-tetrahydro-1H-2,6-methanobenzo[c][1,5]oxazocin-8-yl)-N—((S)-1-oxo-1-(pyrrolidin-1-yl)propan-2-yl)propanamide] | 1 to 100 µM | 1 to 100 µM | 
3 | O=C(NCC(=O)N1CCC[C@H]1CO)NCc1ccc2c(c1)[C@H]1C[C@@H](N2)[C@H](O)CO1 [Compound 13, 1-(((2R,3S,6R)-3-hydroxy-2,3,4,6-tetrahydro-1H-2,6-methanobenzo[c][1,5]oxazocin-8-yl)methyl)-3-(2-((S)-2-(hydroxymethyl)pyrrolidin-1-yl)-2-oxoethyl)urea] | 1 to 100 µM | 1 to 100 µM | 
4 | CSc1ccccc1[C@H]1CCCN1C(=O)CN(C)C(=O)NCc1ccc2c(c1)[C@H]1C[C@@H](N2)[C@H](O)CO1 [Compound 16, 3-((1R,9R,10S)-10-Hydroxy-12-oxa-8-aza-tricyclo[7.3.1.02,7]trideca-2(7),3,5-trien-4-ylmethyl)-1-methyl-1-{2-[(R)-2-(2-methylsulfanyl-phenyl)-pyrrolidin-1-yl]-2-oxo-ethyl}-urea] | 1 to 100 µM | 1 to 100 µM | 
5 | CCn1nnc(CNC(=O)NCc2ccc3c(c2)[C@H]2C[C@@H](N3)[C@H](O)CO2)n1 [Compound 39, 1-((2-ethyl-2H-tetrazol-5-yl)methyl)-3-(((2R,3S,6R)-3-hydroxy-2,3,4,6-tetrahydro-1H-2,6-methanobenzo[c][1,5]oxazocin-8-yl)methyl)urea] | 1 to 100 µM | 1 to 100 µM | 
6 | O=C(NCC(=O)N1CCC[C@@H]1C(F)(F)F)NCc1ccc2c(c1)[C@H]1C[C@@H](N2)[C@H](O)CO1 [Compound 8, 1-(((2R,3S,6R)-3-hydroxy-2,3,4,6-tetrahydro-1H-2,6-methanobenzo[c][1,5]oxazocin-8-yl)methyl)-3-(2-oxo-2-((R)-2-(trifluoromethyl)pyrrolidin-1-yl)ethyl)urea] | 1 to 100 µM | 1 to 100 µM | 
7 | O=C(NCC(=O)N1CCCC1)NCc1ccc2c(c1)[C@H]1C[C@@H](N2)[C@H](O)CO1 [Compound 12, 1-((1R,9R,10S)-10-Hydroxy-12-oxa-8-aza-tricyclo[7.3.1.02,7]trideca-2(7),3,5-trien-4-ylmethyl)-3-(2-oxo-2-pyrrolidin-1-yl-ethyl)-urea] | 1 to 100 µM | 1 to 100 µM | 1 to 100 µM

Second part, the compound after the results:

Row | IC50 [1] | Kd [2] | IC50 [3] | Compound
8 | 1 to 100 µM | 1 to 100 µM |  | CCN1Cc2cc(CNC(=O)NCC(=O)N3CCCC3c3ccccn3)ccc2NCCC1=O (stereo not drawn) [Compound 36, 1-(5-Ethyl-4-oxo-1,2,3,4,5,6-hexahydro-benzo[b][1,5]diazocin-8-ylmethyl)-3-[2-oxo-2-(2-pyridin-2-yl-pyrrolidin-1-yl)-ethyl]-urea]
9 | 1 to 100 µM | 1 to 100 µM |  | CCN1Cc2cc(CCC(=O)NCC(=O)N3CCCC3)ccc2NCCC1=O [Compound 27, 3-(5-Ethyl-4-oxo-1,2,3,4,5,6-hexahydro-benzo[b][1,5]diazocin-8-yl)-N-(2-oxo-2-pyrrolidin-1-yl-ethyl)-propionamide]
10 | 1 to 100 µM | 1 to 100 µM |  | O=C(NCC(=O)N1CCCC1c1cccnc1)NCc1ccc2c(c1)[C@H]1C[C@@H](N2)[C@H](O)CO1 (stereo partly drawn) [Compound 18, 1-((1R,9R,10S)-10-Hydroxy-12-oxa-8-aza-tricyclo[7.3.1.02,7]trideca-2(7),3,5-trien-4-ylmethyl)-3-[2-oxo-2-(2-pyridin-3-yl-pyrrolidin-1-yl)-ethyl]-urea]
11 | 1 to 100 µM | 1 to 100 µM |  | CCN1Cc2cc(CNC(=O)NCC(=O)N(C)[C@H](C)c3ccccc3)ccc2NCCC1=O [Compound 35, (R)-2-(3-((5-ethyl-4-oxo-1,2,3,4,5,6-hexahydrobenzo[b][1,5]diazocin-8-yl)methyl)ureido)-N-methyl-N-(1-phenylethyl)acetamide]
12 | 1 to 100 µM | 1 to 100 µM |  | CCN1Cc2cc(CCC(=O)NCC(=O)N3CCC[C@@H]3C(F)(F)F)ccc2NCCC1=O [Compound 30, 3-(5-Ethyl-4-oxo-1,2,3,4,5,6-hexahydro-benzo[b][1,5]diazocin-8-yl)-N-[2-oxo-2-((R)-2-trifluoromethyl-pyrrolidin-1-yl)-ethyl]-propionamide]
13 | 1 to 100 µM | 1 to 100 µM |  | CCN1Cc2cc(CCC(=O)N[C@@H](CO)C(=O)N3CCCC3)ccc2NCCC1=O [Compound 29, 3-(5-Ethyl-4-oxo-1,2,3,4,5,6-hexahydro-benzo[b][1,5]diazocin-8-yl)-N—((S)-1-hydroxymethyl-2-oxo-2-pyrrolidin-1-yl-ethyl)-propionamide]
14 | 1 to 100 µM | 1 to 100 µM |  | CCN1Cc2cc(CCC(=O)NCC(=O)N3CCC[C@H]3CO)ccc2NCCC1=O [Compound 34, 3-(5-Ethyl-4-oxo-1,2,3,4,5,6-hexahydro-benzo[b][1,5]diazocin-8-yl)-N-[2-((S)-2-hydroxymethyl-pyrrolidin-1-yl)-2-oxo-ethyl]-propionamide]
15 | 1 to 100 µM | 1 to 100 µM |  | CCN1Cc2cc(CCC(=O)NCC(=O)N3CCC[C@@H]3CO)ccc2NCCC1=O [Compound 33, 3-(5-Ethyl-4-oxo-1,2,3,4,5,6-hexahydro-benzo[b][1,5]diazocin-8-yl)-N-[2-(®-2-hydroxymethyl-pyrrolidin-1-yl)-2-oxo-ethyl]-propionamide]
16 | 1 to 100 µM | 1 to 100 µM |  | CCN1Cc2cc(CCC(=O)NCC(=O)N3CCCC4(CCCCC4)C3)ccc2NCCC1=O [Compound 25, N-[2-(2-Aza-spiro[5.5]undec-2-yl)-2-oxo-ethyl]-3-(5-ethyl-4-oxo-1,2,3,4,5,6-hexahydro-benzo[b][1,5]diazocin-8-yl)-propionamide]

Source: US20170283425A1, “COMPOUNDS FOR THE INHIBITION OF CYCLOPHILINS AND USES THEREOF” (Merck Patent GmbH, priority 2016, published 2017)
